According to ChEMBL document CHEMBL4834450, “Design, synthesis and antimicrobial activity of novel 2-aminothiophene containing cyclic and heterocyclic moieties” (2021):

How the values were obtained:
Type in all cases: functional
Settings in all cases: read-out: DIZ
Escherichia coli = assay: Antibacterial activity against Escherichia coli MTCC442 at 5 ug/ml
Aspergillus fumigatus = assay: Antifungal activity against Aspergillus fumigatus HIC6094 at 5 ug/ml
Streptococcus pneumoniae = assay: Antibacterial activity against Streptococcus pneumoniae ATCC49619 at 5 ug/ml
Candida albicans = assay: Antifungal activity against Candida albicans MTCC227 at 5 ug/ml
[1] = system: Syncephalastrum racemosum; assay: Antifungal activity against Syncephalastrum racemosum RCMB05922 at 5 ug/ml
Pseudomonas aeruginosa = assay: Antibacterial activity against Pseudomonas aeruginosa MTCC441 at 5 ug/ml
Bacillus subtilis = assay: Antibacterial activity against Bacillis subtilis BS-GA28 at 5 ug/ml
Geotrichum candidum = assay: Antifungal activity against Geotrichum candidum RCMB05097 at 5 ug/ml

Compound	zone of inhibition at 5 µg/mL (Escherichia coli)	zone of inhibition at 5 µg/mL (Aspergillus fumigatus)	zone of inhibition at 5 µg/mL (Streptococcus pneumoniae)	zone of inhibition at 5 µg/mL (Candida albicans)	zone of inhibition at 5 µg/mL [1]	zone of inhibition at 5 µg/mL (Pseudomonas aeruginosa)	zone of inhibition at 5 µg/mL (Bacillus subtilis)	zone of inhibition at 5 µg/mL (Geotrichum candidum)
CCOC(=O)c1c(Nc2ccccc2)sc(-c2ccn(-c3ccccc3)n2)c1-c1ccccc1	10.9 mm	15.9 mm	12.3 mm	15.8 mm	18.9 mm	11.6 mm	12.7 mm	19.1 mm
CCOC(=O)c1c(Nc2ccccc2)sc(C(=O)/C=C\Nc2ccc([N+](=O)[O-])cc2)c1-c1ccccc1	18.8 mm	12.6 mm	19.5 mm	10.9 mm	16.5 mm	12.3 mm	29.8 mm	25.8 mm
CCOC(=O)c1c(Nc2ccccc2)sc(C(=O)/C=C/c2ccc(O)cc2)c1-c1ccccc1	19.5 mm	15.7 mm	26.7 mm	13.3 mm	11.2 mm	18.7 mm	21.4 mm	17.3 mm
C[C@@H]1[C@H](O)[C@@H](C)/C=C/C=C/C=C/C=C/C=C/C=C/C=C/[C@H](O[C@@H]2O[C@H](C)[C@@H](O)[C@H](N)[C@@H]2O)C[C@@H]2O[C@](O)(C[C@@H](O)C[C@@H](O)[C@H](O)CC[C@@H](O)C[C@@H](O)CC(=O)O[C@H]1C)C[C@H](O)[C@H]2C(=O)O [AMPHOTERICIN B]		23.7 mm		25.4 mm	19.7 mm			28.7 mm
CCOC(=O)c1c(Nc2ccccc2)sc(C(=O)/C=C/c2ccc(Cl)cc2)c1-c1ccccc1	17.6 mm	22.3 mm	19.5 mm	12.3 mm	16.5 mm	12.3 mm	29.8 mm	25.8 mm
CCOC(=O)c1c(Nc2ccccc2)sc(-c2ccnc(N)n2)c1-c1ccccc1	10.7 mm	18.2 mm	16.3 mm	18.2 mm	13.7 mm	11.4 mm	19.1 mm	19.1 mm
CCOC(=O)c1ccc(-c2sc(Nc3ccccc3)c(C(=O)OCC)c2-c2ccccc2)nc1C	11.1 mm	26.3 mm	18.2 mm	11.2 mm	20.9 mm	10.8 mm	18.9 mm	12.6 mm
CCOC(=O)c1c(Nc2ccccc2)sc(C(=O)/C=C/c2ccc([N+](=O)[O-])cc2[N+](=O)[O-])c1-c1ccccc1	9.9 mm	18.9 mm	16.5 mm	13.4 mm	19.6 mm	11.3 mm	18.9 mm	14.8 mm
CCOC(=O)c1c(Nc2ccccc2)sc(C(=O)/C=C/c2ccc(OC)cc2)c1-c1ccccc1	10.2 mm	23.4 mm	18.9 mm	11.9 mm	16.1 mm	11.4 mm	17.9 mm	10.8 mm
CCOC(=O)c1c(Nc2ccccc2)sc(C(=O)c2cn(-c3ccc(C)cc3)nc2C(C)=O)c1-c1ccccc1	11.3 mm	15.7 mm	12.3 mm	12.7 mm	16.6 mm	9.8 mm	12.7 mm	12.6 mm
CCOC(=O)c1c(Nc2ccccc2)sc(C(=O)/C=C/c2cccc(N(C)C)c2)c1-c1ccccc1	14.8 mm	24.3 mm	16.3 mm	14.3 mm	24.5 mm	12.5 mm	19.6 mm	25.8 mm
CCOC(=O)c1c(Nc2ccccc2)sc(-c2ccnc(O)n2)c1-c1ccccc1	10.7 mm	18.2 mm	16.3 mm	18.2 mm	13.7 mm	11.4 mm	19.1 mm	19.1 mm
CCOC(=O)c1c(Nc2ccccc2)sc(-c2ccnc(S)n2)c1-c1ccccc1	11.3 mm	15.7 mm	12.3 mm	12.7 mm	16.6 mm	9.8 mm	12.7 mm	12.6 mm
CCOC(=O)c1c(Nc2ccccc2)sc(C(=O)/C=C/c2ccc(Cl)c(Cl)c2)c1-c1ccccc1	8.9 mm	17.7 mm	11.3 mm	13.2 mm	15.4 mm	9.7 mm	10.7 mm	12.9 mm
CC1(C)S[C@@H]2[C@H](NC(=O)[C@H](N)c3ccccc3)C(=O)N2[C@H]1C(=O)O [AMPICILLIN]			23.8 mm				32.4 mm	
CCOC(=O)c1c(Nc2ccccc2)sc(-c2ccn(-c3ccc(Cl)cc3)n2)c1-c1ccccc1	11.1 mm	26.3 mm	18.2 mm	11.2 mm	20.9 mm	10.8 mm	18.9 mm	12.6 mm
CCOC(=O)c1c(Nc2ccccc2)sc(C(=O)c2cn(-c3ccc(Cl)cc3)nc2C(C)=O)c1-c1ccccc1	8.8 mm	16.3 mm	14.6 mm	14.3 mm	14.8 mm	10.2 mm	14.3 mm	15.3 mm
